For 16 molecules, pest or weed control results are on record in US8865623B2, “Herbicidally active cyclic diones and derivatives thereof, processes for their preparation, compositions, and method of controlling weeds” (Syngenta Limited, priority 2009, dated 2014).

Holding throughout (format): in vivo
Experiment [1] deals with Alopecurus myosuroides (ALOMY). In words: Post-emergence herbicidal activity, glasshouse pot test. The conditions noted are these: Alopecurus myosuroides, 312 h, rate 250 g/ha, evaluated after 13 days, glasshouse, read-out: Post-emergence activity ALOMY (100=total damage to plant; 0=no damage to plant). The method in brief:
(§1)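 Test species are sown in pots of standard soil and sprayed either one day after sowing or after 8 days of cultivation, for pre- and post-emergence respectively. Plants grow in a controlled glasshouse, watered twice daily, and damage is assessed at 13 days, 0 to 100.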

Experiment [2] has as its system Lolium perenne (LOLPE). The experiment is described as above. The conditions noted are these: Lolium perenne, 312 h, rate 250 g/ha, evaluated after 13 days, glasshouse, read-out: Post-emergence activity LOLPE (100=total damage to plant; 0=no damage to plant). Put shortly:
as §1

The subject of experiment [3] is Echinochloa crus-galli (ECHCG). The description is as above. The conditions noted are these: Echinochloa crus-galli, 312 h, rate 250 g/ha, evaluated after 13 days, glasshouse, read-out: Post-emergence activity ECHCG (100=total damage to plant; 0=no damage to plant). The method in brief:
as §1

In experiment [4] the test system is Avena fatua (AVEFA). The experiment is described as above. The conditions noted are these: Avena fatua, 312 h, rate 250 g/ha, evaluated after 13 days, glasshouse, read-out: Post-emergence activity AVEFA (100=total damage to plant; 0=no damage to plant). Put shortly:
as §1

In experiment [5] the test system is Alopecurus myosuroides (ALOMY). In words: Pre-emergence herbicidal activity, glasshouse pot test. The conditions noted are these: Alopecurus myosuroides, 312 h; Rate 250 g/ha; pre-emergence spray; evaluated after 13 days; read-out: Pre-emergence activity ALOMY (100=total damage to plant; 0=no damage to plant). The method in brief:
as §1

Experiment [6] deals with Lolium perenne (LOLPE). Described as above. The conditions noted are these: Lolium perenne, 312 h; Rate 250 g/ha; pre-emergence spray; evaluated after 13 days; read-out: Pre-emergence activity LOLPE (100=total damage to plant; 0=no damage to plant). The method in brief: as §1
Experiment [7] deals with Echinochloa crus-galli (ECHCG). Described as above. The conditions noted are these: Echinochloa crus-galli, 312 h; Rate 250 g/ha; pre-emergence spray; evaluated after 13 days; read-out: Pre-emergence activity ECHCG (100=total damage to plant; 0=no damage to plant). The method in brief: as §1
Experiment [8] has as its system Avena fatua (AVEFA). The experiment is described as above. The conditions noted are these: Avena fatua, 312 h; Rate 250 g/ha; pre-emergence spray; evaluated after 13 days; read-out: Pre-emergence activity AVEFA (100=total damage to plant; 0=no damage to plant). The method in brief: as §1

Regarding `CCc1ccc(Oc2ccc([N+](=O)[O-])cc2Cl)cc1C1=C(O)C(C)(C)OC(C)(C)C1=O` [Example A-201], the pest or weed control at 250 g/ha turned out to be 60% in experiment [1]; 70% in experiment [2]; 100% in experiment [3]; 60% in experiment [4]; 10% in experiment [5]; 30% in experiment [6]. Besides, the values for the pest or weed control at 250 g/ha in experiment [7] and in experiment [8] were 60% and 0%, respectively.

As for `CCc1ccc(Oc2ccc([N+](=O)[O-])cc2C#N)cc1C1=C(O)C(C)(C)OC(C)(C)C1=O` [Example A-202], the pest or weed control at 250 g/ha is 10% in experiment [1]; 30% in experiment [2]; 60% in experiment [3]; 20% in experiment [4]; 0% in experiment [5]; 10% in experiment [6]. Besides, the pest or weed control at 250 g/ha in experiment [7] worked out at 60%; in experiment [8], 0%.

For the molecule `CCc1ccc(Oc2ccc(C(F)(F)F)cc2[N+](=O)[O-])cc1C1=C(O)C(C)(C)OC(C)(C)C1=O` [Example A-203], the pest or weed control at 250 g/ha is 90% in experiment [1]; 90% in experiment [2]; 90% in experiment [3]; 100% in experiment [4]; 20% in experiment [5]; 90% in experiment [6]. Also, the pest or weed control at 250 g/ha in experiment [7] came to 50%; in experiment [8] it was 30%.

`CCc1ccc(Oc2c(Cl)cc(C(F)(F)F)cc2Cl)cc1C1=C(O)C(C)(C)OC(C)(C)C1=O` [Example A-204]: the pest or weed control at 250 g/ha in experiment [1] was 60%; in experiment [2], 40%; in experiment [3], 70%; in experiment [4], 50%; in experiment [5] it was 0%; in experiment [6] it was 10%. The pest or weed control at 250 g/ha in experiment [7] amounted to 20%; in experiment [8], 0%.

As for `CCc1ccc(Oc2c(F)cc(C(F)(F)F)cc2F)cc1C1=C(O)C(C)(C)OC(C)(C)C1=O` [Example A-205], the pest or weed control at 250 g/ha in experiment [1] was found to be 70%; in experiment [2], 90%; in experiment [3] it was 100%; in experiment [4], 60%; in experiment [5], 20%; in experiment [6] it was 60%. Moreover, the results for the pest or weed control at 250 g/ha in experiment [7] and in experiment [8] were 60% and 10%, respectively.

On to `CCc1ccc(Oc2cc(F)cc(F)c2C#N)cc1C1=C(O)C(C)(C)OC(C)(C)C1=O` [Example A-206], for which the pest or weed control at 250 g/ha in experiment [1] is 20%; in experiment [2], 50%; in experiment [3] it was 70%; in experiment [4], 30%; in experiment [5], 0%; in experiment [6], 10%. The values for the pest or weed control at 250 g/ha in experiment [7] and in experiment [8] were 30% and 0%, respectively.

Turning to `CCc1ccc(Oc2cc(F)c(C#N)c(F)c2)cc1C1=C(O)C(C)(C)OC(C)(C)C1=O` [Example A-207], the pest or weed control at 250 g/ha was 80% in experiment [1]; 90% in experiment [2]; 100% in experiment [3]; 80% in experiment [4]; 30% in experiment [5]; 60% in experiment [6]. Also, the pest or weed control at 250 g/ha in experiment [7] turned out to be 70%; in experiment [8], 10%.

Regarding `CCc1ccc(Oc2ccc(C(F)(F)F)c(C#N)c2)cc1C1=C(O)C(C)(C)OC(C)(C)C1=O` [Example A-210], the pest or weed control at 250 g/ha in experiment [1] turned out to be 90%; in experiment [2], 100%; in experiment [3], 100%; in experiment [4], 90%; in experiment [5], 30%; in experiment [6] it was 20%. Besides, the pest or weed control at 250 g/ha in experiment [7] amounted to 60%; in experiment [8] it was 10%.

As for `CCc1ccc(Oc2nc3ccc(OC)cc3s2)cc1C1=C(O)C(C)(C)OC(C)(C)C1=O` [Example A-214], the pest or weed control at 250 g/ha in experiment [1] was 100%; in experiment [2], 100%; in experiment [3], 100%; in experiment [4] it was 70%; in experiment [5] it was 50%; in experiment [6] it was 40%. The pest or weed control at 250 g/ha is 90% in experiment [7] and 30% in experiment [8].

Consider `CCc1ccc(Oc2nc3cc4c(cc3s2)OCCO4)cc1C1=C(O)C(C)(C)OC(C)(C)C1=O` [Example A-215], for which the pest or weed control at 250 g/ha in experiment [1] came to 10%; in experiment [2] it was 20%; in experiment [3], 40%; in experiment [4] it was 0%; in experiment [5], 0%; in experiment [6], 0%. The results for the pest or weed control at 250 g/ha in experiment [7] and in experiment [8] were 20% and 0%, respectively.

Consider `CCc1ccc(Oc2nc3c(Cl)c(OC)ccc3s2)cc1C1=C(O)C(C)(C)OC(C)(C)C1=O` [Example A-216], for which the pest or weed control at 250 g/ha in experiment [1] was 60%; in experiment [2], 70%; in experiment [3] it was 80%; in experiment [4] it was 70%; in experiment [5] it was 30%; in experiment [6] it was 10%. For the same molecule, the pest or weed control at 250 g/ha in experiment [7] was determined as 70%; in experiment [8] it was 0%.

For `CCc1ccc(Oc2nc3cc(OC)ccc3s2)cc1C1=C(O)C(C)(C)OC(C)(C)C1=O` [Example A-217], the pest or weed control at 250 g/ha in experiment [1] was determined as 60%; in experiment [2], 60%; in experiment [3], 70%; in experiment [4], 50%; in experiment [5], 30%; in experiment [6] it was 60%. Besides, the pest or weed control at 250 g/ha in experiment [7] came out at 40%; in experiment [8], 0%.

Consider `CCc1ccc(Oc2nc3ccc(OC(F)(F)F)cc3s2)cc1C1=C(O)C(C)(C)OC(C)(C)C1=O` [Example A-218], for which the pest or weed control at 250 g/ha turned out to be 70% in experiment [1]; 80% in experiment [2]; 100% in experiment [3]; 100% in experiment [4]; 20% in experiment [5]; 20% in experiment [6]. Also, the pest or weed control at 250 g/ha in experiment [7] turned out to be 50%; in experiment [8], 10%.

Take `CCc1ccc(Oc2nc3ccc(C(F)(F)F)cc3s2)cc1C1=C(O)C(C)(C)OC(C)(C)C1=O` [Example A-219]: the pest or weed control at 250 g/ha stood at 90% in experiment [1]; 90% in experiment [2]; 100% in experiment [3]; 100% in experiment [4]; 50% in experiment [5]; 80% in experiment [6]. Moreover, the values for the pest or weed control at 250 g/ha in experiment [7] and in experiment [8] were 90% and 30%, respectively.

As to `CCc1ccc(Oc2nc3cccc(C#N)c3s2)cc1C1=C(O)C(C)(C)OC(C)(C)C1=O` [Example A-220], the pest or weed control at 250 g/ha in experiment [1] was 60%; in experiment [2], 80%; in experiment [3] it was 100%; in experiment [4] it was 30%; in experiment [5] it was 10%; in experiment [6], 10%. For the same molecule, the pest or weed control at 250 g/ha in experiment [7] came out at 30%; in experiment [8], 0%.

Consider `CCc1ccc(Oc2nc3c(Cl)cc(Cl)cc3s2)cc1C1=C(O)C(C)(C)OC(C)(C)C1=O` [Example A-221], for which the pest or weed control at 250 g/ha is 80% in experiment [1]; 90% in experiment [2]; 100% in experiment [3]; 50% in experiment [4]; 60% in experiment [5]; 60% in experiment [6]. Moreover, the pest or weed control at 250 g/ha in experiment [7] stood at 70%; in experiment [8], 40%.
